Where two headings read alike, the source gives them in different places.
Legend:
Caco-2 cells = assay: Assay C: permeability in CACO-2 cells; format: in vitro ADME; settings: for Permeability A-B: Caco-2, apical to basolateral
Protocol: (§1) Compounds are dissolved in appropriate solvent (like DMSO, 1-20 mM stock solutions). […] The transport solution (TL) is applied to the apical or basolateral donor side for measuring A-B or B-A permeability (3 filter replicates), respectively. Samples are collected at the start and end of experiment from the donor and at various time intervals for up to 2 hours also from the receiver side for concentration measurement by HPLC-MS/MS or scintillation counting. Sampled receiver volumes are replaced with fresh receiver solution.

[1] = tested on: SIRPα signalling induced by A549 cells; assay: Assay B: SIRPα signalling assay using A549 cells; format: cell-based, human
Protocol: Two cell types are independently used: the Raji cell line (lymphoblastlike human cell line derived from B lymphocytes from a Burkitt's lymphoma patient in 1963) and A549 cells (adenocarcinomic human alveolar basal epithelial cells).
Test compounds were dissolved in 100% DMSO and serially diluted into a white 384-well microtiter cell culture plate (PerkinElmer #60076780 in case of Raji assay; PDL-coated plates Greiner #781945 in case of A549 assay). 5000 Raji cells (ATCC #CC86) or 5000 A549 cells (ATCC #CCL-185) in Assay Complete Cell Plating reagent 30 (DiscoverX 93-0563R30B) were added per well. The assay plate was incubated for 48 h at 37° C., 95% humidity and 5% CO2. 15000 reporter cells (Jurkat PathHunter SIRPα V1, DiscoverX #93-1135C19) were added to each well, and the plate was incubated for 5 h at 37° C., 95% humidity and 5% CO2. Bioassay reagent 1 of the PathHunter Bioassay detection kit (DiscoverX 93-0001) was added to each well of the plate using a multichannel pipette followed by a 15 min incubation at room temperature. Afterwards bioassay reagent 2 was added followed by 60 min incubation at room temperature (incubation in the dark).
The analysis of the data was performed using the luminescence signal generated by beta-galactosidase in the PathHunter reporter cell line. The luminescence measurement was done using a Pherastar Multi-Mode Reader. Dose-response curves & IC50 data were calculated with 4-parameter sigmoidal dose response formula.

QPCT = QPCT (Homo sapiens (Human), UniProt Q16769); assay: Assay A: biochemical QPCT activity assay (MALDI-TOF MS); settings: compounds of the invention, Table 2; read-out: Inhibition of QPCT: IC50
Protocol: (§2) QPCT or QPCTL dependent conversion of N-terminal glutamine to pyroglutamate of CD47 was monitored via MALDI-TOF MS. Test compounds were dissolved in 100% DMSO and serially diluted into clear 1,536-well microtiter plates. Enzymatic reactions were set up in assay buffer containing 20 mM Tris pH 7.5, 0.1 mM TCEP, 0.01% BSA, and 0.001% Tween20. […] The plates were incubated for 10 min in a humidified incubator at 24° C. Subsequently, 2.5 μL of CD47 peptide substrate surrogate (^19[…]^33) was added to each well (final concentration: 10 μM for QPCTL/20 μM for QPCT). The plates were mixed for 30 sec at 1,000 rpm and subsequently incubated for 40 min in a humidified incubator at 24° C. […] The plates were sealed with an adhesive foil, mixed for 30 s at 1,000 rpm and stored at room temperature until preparation of the MALDI target plates. […] QPCT or QPCTL activity was monitored by calculating the ratio between product and internal standard signals followed by normalization to high (100% activity) and low (0% activity) controls. Determination of compound potencies was obtained by fitting the dose-response data to a four-parameter logistical equation.

[2] = tested on: SIRPα signalling induced by Raji cells; assay: Assay B: SIRPα signalling assay using Raji cells; format: cell-based, human
Protocol: Bioassay reagent 1 of the PathHunter Bioassay detection kit (DiscoverX 93-0001) was added to each well of the plate using a multichannel pipette followed by a 15 min incubation at room temperature. Afterwards bioassay reagent 2 was added followed by 60 min incubation at room temperature (incubation in the dark).
The analysis of the data was performed using the luminescence signal generated by beta-galactosidase in the PathHunter reporter cell line. The luminescence measurement was done using a Pherastar Multi-Mode Reader.

QPCTL = QPCTL (Homo sapiens (Human), UniProt Q9NXS2); assay: Assay A: biochemical QPCTL activity assay (MALDI-TOF MS); settings: compounds of the invention, Table 2; read-out: Inhibition of QPCTL: IC50
Protocol: as §2

[3] = Assay C: permeability in CACO-2 cells; format: in vitro ADME; settings: human, pH 7.2, compounds of the invention, Table 7
Protocol: as §1

[4] = Homo sapiens, compounds of the invention, Table 4, read-out: Inhibition of SIRα signalling induced by A549 cells: IC50
[5] = Homo sapiens, compounds of the invention, Table 4, read-out: Inhibition of SIRα signalling induced by Raji cells: IC50

QPCTL, sequence (Q9NXS2 whole entry): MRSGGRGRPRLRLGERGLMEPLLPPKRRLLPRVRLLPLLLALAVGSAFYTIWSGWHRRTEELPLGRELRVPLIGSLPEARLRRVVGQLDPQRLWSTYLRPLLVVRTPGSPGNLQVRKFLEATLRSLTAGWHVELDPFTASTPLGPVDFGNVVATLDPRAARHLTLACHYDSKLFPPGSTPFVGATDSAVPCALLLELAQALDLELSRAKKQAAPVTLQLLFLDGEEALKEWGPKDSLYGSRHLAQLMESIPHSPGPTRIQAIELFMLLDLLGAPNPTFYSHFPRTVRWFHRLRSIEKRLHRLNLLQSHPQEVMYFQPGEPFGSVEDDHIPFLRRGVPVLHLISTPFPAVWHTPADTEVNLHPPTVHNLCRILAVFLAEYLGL
QPCT, sequence (Q16769 29-361): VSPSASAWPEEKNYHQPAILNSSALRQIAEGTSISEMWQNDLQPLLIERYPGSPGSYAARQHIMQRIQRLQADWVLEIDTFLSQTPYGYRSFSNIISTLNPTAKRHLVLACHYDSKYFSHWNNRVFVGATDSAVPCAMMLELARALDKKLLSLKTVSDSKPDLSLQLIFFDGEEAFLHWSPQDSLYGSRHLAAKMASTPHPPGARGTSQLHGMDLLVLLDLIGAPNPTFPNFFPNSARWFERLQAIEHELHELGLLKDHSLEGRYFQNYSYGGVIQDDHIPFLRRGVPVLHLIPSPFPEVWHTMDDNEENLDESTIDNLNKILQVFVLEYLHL

SMILES | Permeability A-B (Caco-2 cells; compounds of the invention, Table 7) | efflux ratio (Caco-2 cells; Caco-2, compounds of the invention, Table 7) | IC50 ([1]; compounds of the invention, Table 4, read-out: Inhibition of SIRα signalling induced by A549 cells: IC50) [nM] | IC50 (QPCT) [nM] | IC50 ([2]; compounds of the invention, Table 4, read-out: Inhibition of SIRα signalling induced by Raji cells: IC50) [nM] | IC50 (QPCTL) [nM] | Permeability A-B (Caco-2 cells; prior art compounds, Table 8) | IC50 ([1]; prior art compounds, Table 5, read-out: Inhibition of SIRPα signalling induced by A549 cells: IC50) [nM] | IC50 ([2]; prior art compounds, Table 5, read-out: Inhibition of SIRPα signalling induced by Raji cells: IC50) [nM] | Papp A→B ([3]; Caco-2, apical to basolateral) [×10⁻⁶ cm/s] | efflux ratio ([3]; Caco-2) | IC50 [1, 4] [nM] | IC50 [2, 5] [nM] | Papp A→B at 2 h ([3]; Caco-2, apical to basolateral) [×10⁻⁶ cm/s] | efflux ratio at 2 h ([3]; Caco-2)
CNC(=O)c1cncc(-c2cccc(C#N)c2N2CCC(c3nncn3C)CC2)c1 [Example 80] | 0.2 10^−6 cm/s | 37.8 | 176 | 11 | 336 | 2 | – | – | – | – | – | – | – | – | –
Cn1cnnc1C1CCN(c2ncccc2-c2ccc(F)nc2)CC1 [SEN177, reference compound] | – | – | – | – | – | – | 11.0 10^−6 cm/s | 214 | 1360 | – | – | – | – | – | –
Cn1cnnc1C1CCN(c2c(C#N)cccc2-c2cnc(F)c(OCC3CC3)c2)CC1 [compound 36] | – | – | – | 2 | – | 1 | – | – | – | 34 | 2.4 | 10 | 19 | – | –
Cn1cnnc1C1CCN(c2c(C#N)cccc2-c2cnn3ncccc23)CC1 [compound 57] | – | – | – | 11 | – | 5 | – | – | – | 3.9 | 11 | 244 | 442 | – | –
Cn1cnnc1C1CCN(c2c(C#N)cccc2-c2cnc3nnn(C)c3c2)CC1 [compound 40] | – | – | – | 4 | – | 1 | – | – | – | 0.1 | 100 | 109 | 214 | – | –
Cn1cnnc1C1CCN(c2c(C#N)cccc2-c2cnc3c(c2)OCO3)CC1 [compound 25] | – | – | – | 84 | – | 14 | – | – | – | 7.4 | 7.4 | 339 | 566 | – | –
Cn1cnnc1C1CCN(c2c(C#N)cccc2-c2cnc3n[nH]cc3c2)CC1 [compound 26] | – | – | – | 24 | – | 5 | – | – | – | – | – | 382 | 427 | 0.4 | 48.6
CC#Cc1cncc(-c2cccc(C#N)c2N2CCC(c3nncn3C)CC2)c1 [compound 10] | – | – | – | 75 | – | 18 | – | – | – | 25 | 2.2 | 348 | 692 | – | –
Cn1nc2cc(-c3cccc(C#N)c3N3CCC(c4nncn4C)CC3)cnc2n1 [compound 45] | – | – | – | 26 | – | 4 | – | – | – | 0.8 | 31.6 | 173 | 140 | – | –
Cn1cnnc1C1CCN(c2c(C#N)cccc2-c2ccc(Cl)nc2)CC1 [compound 18] | – | – | – | 357 | – | 56 | – | – | – | 13.6 | 5 | 294 | 2270 | – | –
Cn1cnnc1C1CCN(c2c(C#N)cccc2-c2cnc3nn(C(C)(C)C)cc3c2)CC1 [compound 50] | – | – | – | 1 | – | 1 | – | – | – | 0.5 | 75.5 | 33 | 21 | – | –
Cn1cnnc1C1(F)CCN(c2c(C#N)cccc2-c2cnc3nn(Cc4ccccc4)nc3c2)CC1 [compound 64] | – | – | – | 5 | – | 2 | – | – | – | 29 | 1.2 | 19 | 61 | – | –
Cn1cnnc1C1(F)CCN(c2c(C#N)cccc2-c2cnc3nn(C(C)(C)C)cc3c2)CC1 [compound 62] | – | – | – | 1 | – | 1 | – | – | – | 4.9 | 19 | 11 | 21 | – | –
Cn1cnnc1C1(F)CCN(c2c(C#N)cccc2-c2cnc3nnn(Cc4ccccc4)c3c2)CC1 [compound 63] | – | – | – | 3 | – | 1 | – | – | – | 3.3 | 14.5 | 9 | 13 | – | –
Cc1cc(-c2cccc(C#N)c2N2CCC(F)(c3nncn3C)CC2)cnc1F [compound 82] | – | – | – | 3 | – | 2 | – | – | – | 41 | 1.6 | 17 | 63 | – | –
Cn1cnnc1C1CCN(c2c(C#N)cccc2-c2cnc3nc(-c4cccc(Cl)c4)ccn23)CC1 [compound 28] | – | – | – | 12 | – | 2 | – | – | – | 5.5 | 12.4 | 282 | 250 | – | –
COc1cc(-c2cccc(C#N)c2N2CCC(c3nncn3C)CC2)cnc1F [compound 49] | – | – | – | 9 | – | 2 | – | – | – | 18 | 3.6 | 56 | 63 | – | –
Cn1cnnc1C1CCN(c2c(C#N)cccc2-c2cnc(F)c(Cl)c2)CC1 [compound 42] | – | – | – | 24 | – | 4 | – | – | – | 36 | 2 | 72 | 105 | – | –
Cn1cnnc1C1CCN(c2c(C#N)cccc2-c2cnc3c(c2)CCCO3)CC1 [compound 12] | – | – | – | 57 | – | 12 | – | – | – | 2.7 | 23.7 | 243 | 421 | – | –
Cn1cnnc1C1CCN(c2c(C#N)cccc2-c2cnc3nsnc3c2)CC1 [compound 43] | – | – | – | 28 | – | 3 | – | – | – | 2.2 | 22.3 | 271 | 342 | – | –
Cn1cnnc1C1CCN(c2c(C#N)cccc2-c2cnc(F)c(OCc3ccccc3)c2)CC1 [compound 35] | – | – | – | 12 | – | 2 | – | – | – | 24 | 2.4 | 18 | 51 | – | –
Cn1cnnc1C1CCN(c2c(C#N)cccc2-c2cnc3nc[nH]c3c2)CC1 [compound 33] | – | – | – | 6 | – | 1 | – | – | – | < 0.1 | > 27 | 210 | 501 | – | –
Cn1cnnc1C1CCN(c2c(C#N)cccc2-c2cncc3cn(Cc4ccccc4)nc23)CC1 [compound 77] | – | – | – | 88 | – | 30 | – | – | – | 0.7 | 52.3 | 1860 | 374 | – | –
Cn1cnnc1C1CCN(c2c(C#N)cccc2-c2cnc(F)c(OC(F)(F)F)c2)CC1 [compound 31] | – | – | – | 71 | – | 9 | – | – | – | 39 | 2.2 | 135 | 244 | – | –
Cc1cc(-c2cccc(C#N)c2N2CCC(c3nncn3C)CC2)cnc1F [compound 5] | – | – | – | 12 | – | 3 | – | – | – | 23 | 1.6 | 26 | 93 | – | –
Cn1cnnc1C1(F)CCN(c2c(C#N)cccc2-c2cncc3cn(Cc4ccccc4)nc23)CC1 [compound 78] | – | – | – | 42 | – | 34 | – | – | – | 6.5 | 7.4 | 440 | 456 | – | –
